“Also recorded” adds a separate entry of the source.
Legend:
Versican (VCAN) = assay: Immunohistochemical staining of mouse back skin, dermal papilla cell marker Versican (VCAN); type: in vivo, mice; settings: Day 21
Text: (§1) The development of skin tissue, which becomes the surrounding support for hair growth, plays an important role in hair growth. As such, in order to compare the degree of the development of skin tissue in 6 experimental groups of the vehicle-applied control group (topical control), the Minoxidil-applied positive control group (topical minoxidil), the Cp 1 application group (topical Cp 1), the candlelit-shaped microneedle control group (CMN control), the Cp 1 microneedle administration group (Cp 1 conv-DMN) and the Cp 1 candlelit-shaped microneedle administration group (Cp 1 CMN), β-catenin and PCNA, which are biomarkers indicating skin tissue proliferation, the vascular endothelial cell marker MECA 32 showing the development of the vascular network around the mouse hair follicle, and the dermal papilla cell (DP) marker Versican (VCAN), which is generated in the hair follicle anagen phase showing the hair follicle anagen phase inducing effect, were observed by immunohistochemical staining. To this end, as in Example 1-2, the back tissue of the mice was collected on Day 21, then the frozen tissue was sectioned, and the fluorescent material-conjugated antibody was treated on the tissue, and then the fluorescence images were analyzed. The antibodies used were β-catenin (BD Biosciences, San Jose, CA, USA), PCNA (LSBIO, Seattle, WA, USA), VCAN (LSBIO, Seattle, WA, USA) and MECA-32 (Novus Biologicals, CA, USA), respectively.

MECA 32 = assay: Immunohistochemical staining of mouse back skin, vascular endothelial cell marker MECA 32; type: in vivo, mice; settings: Day 21
Text: as §1

[1] = test system: C57BL/6 mice with hair follicles in the telogen phase; assay: Hair growth in hair-removed C57BL/6 mice, evaluated on Day 21 (visual/Image J, H&E); type: in vivo; settings: for skin area converted to black (anagen phase) with respect to the total hair-removed skin area / skin area with actual hair growth as a percentage of the total hair removal skin area: 50 μL
Method: 7-week-old C57BL/6 mice (Orient Bio, Korea) with hair follicles in the telogen phase were purchased and the experiment was performed. The experiment was conducted using 4 mice each for 6 experimental groups of a vehicle-applied control group (topical control), a Minoxidil-applied positive control group (topical Minoxidil), an Cp 1-applied group (topical Cp 1), a candlelit-shaped microneedle control group (CMN control), an Cp 1 microneedle administration group (Cp 1 conv-DMN) and an Cp 1 candlelit-shaped microneedle administration group (Cp 1 CMN).
In the topical formulation, polyethylene glycol 400 (PEG 400; Sigma-Aldrich, St. Louis, MO, USA) and ethanol (99.5°; Sigma-Aldrich) were mixed in 50 μL solution with a ratio of 7:3 (v/v) containing 2% (w/v) of minoxidil (Sigma-Aldrich) and 0.002% (w/v) of Cp-1 (2 μg per day). The topical formulation groups' 50 μL solutions were administered twice a day.
The experiment was started in a pink skin condition by removing the hair on the back of the mice, and the drug application was carried out twice a day for 21 days, and when injected using a microneedle, it was injected once every 2 days and was not injected on last Day 21.
On Day 21 of the administration, the area in which the color of the back of the mice was changed to black, that is, the area converted to the anagen phase among the shaved areas was analyzed with the naked eye and the Image J software (National Institutes of Health, Bethesda, MD, USA), which is an image analysis program.
On Day 21 of the administration, the ratio of actual hair growth on the back of the mice was analyzed with the naked eye and the Image J software (National Institutes of Health, Bethesda, MD, USA), which is an image analysis program.
On Day 21 of the administration, the distribution rate by hair growth cycle in mice was compared.

β-catenin = assay: Immunohistochemical staining of mouse back skin, β-catenin; type: in vivo, mice; settings: Day 21
Text: as §1

[2] = topical application twice a day
[3] = topical application twice a day, 2% (w/v) minoxidil or 0.002% (w/v) Cp 1
[4] = general microneedle or candlelit-shaped microneedle

SMILES	expression level of VCAN (rank order of groups) (Versican (VCAN); topical application)	expression level of MECA 32 (rank order of groups) (MECA 32; topical application)	hair growth effect and skin tissue development (visual observation, H&E) [1, 2]	hair follicles converted to the anagen phase (distribution rate by hair growth cycle, H&E) [1, 3] [%]	skin area converted to black (anagen phase) with respect to the total hair-removed skin area [1, 3] [%]	skin area with actual hair growth as a percentage of the total hair removal skin area [1, 3] [%]	expression level of VCAN (rank order of groups) (Versican (VCAN); [4])	β-catenin expression (β-catenin; Cp 1 applied, compared with Minoxidil applied)	β-catenin expression (β-catenin; administered using a candlelit-shaped microneedle)	β-catenin expression (β-catenin; administered with a microneedle, compared with Minoxidil applied)	expression level of MECA 32 (rank order of groups) (MECA 32; [4])	skin thickness and hair thickness ([1]; administered using microneedles, especially candlelit-shaped microneedles)	skin thickness and hair thickness ([1]; topical application, compared to topical Minoxidil)
Nc1cc(N2CCCCC2)nc(N)[n+]1[O-] [Minoxidil, 2,4-diamino-6-piperidinopyrimidine-3-oxide, reference compound]	increased in the order of Minoxidil application, Cp 1 application, Cp 1 administration using a general microneedle and M-19 administration using a candlelit-shaped microneedle	increased in the order of Minoxidil application. Cp 1 application, Cp 1 administration using a general microneedle and M-19 administration using a candlelit-shaped microneedle	increased skin thicknesses along with the hair growth effect	52.5±1.3	65.3±22.3	38.4±17.1							
CCCOc1ccc(S(=O)(=O)N2CCC(CCO[N+](=O)[O-])(CCO[N+](=O)[O-])CC2)cc1-c1nc2c(CCC)cn(CC)c2c(=O)[nH]1 [Cp 1, (1-((3-(5-ethyl-4-oxo-7-propyl-4,5-dihydro-3H-pyrrolo[3,2-d]pyrimidin-2-yl)-4-propoxyphenyl)sulfonyl)piperidine-4,4-diyl)bis(ethane-2,1-diyl) dinitrate]	increased in the order of Minoxidil application, Cp 1 application, Cp 1 administration using a general microneedle and M-19 administration using a candlelit-shaped microneedle	increased in the order of Minoxidil application. Cp 1 application, Cp 1 administration using a general microneedle and M-19 administration using a candlelit-shaped microneedle	increased skin thicknesses along with the hair growth effect; also recorded: more effective than Minoxidil treatment		92.1±3.0	61.0±14.0	increased in the order of Minoxidil application, Cp 1 application, Cp 1 administration using a general microneedle and M-19 administration using a candlelit-shaped microneedle	higher	highest β-catenin expression effect	higher	increased in the order of Minoxidil application. Cp 1 application, Cp 1 administration using a general microneedle and M-19 administration using a candlelit-shaped microneedle	more significantly improved skin thickening effect and hair thickness improvement effect	more improved skin thickening effect and hair thickness improvement effect

Reference: patent publication US20250195522A1, “TRANSDERMAL DOSAGE FORM, FOR PROMOTING LOCAL BLOOD FLOW, OF DUAL-ACTING PDE5 INHIBITOR/ORGANIC NITRATE ESTER” (UIF (University Industry Foundation), Yonsei University, priority 2022, published 2025)
